Data on twelve molecules can be found in US9012659B2, “3-(indolyl)- or 3-(azaindolyl)-4-arylmaleimide compounds and their use in tumor treatment” (Johannes Gutenberg—Universitat Mainz, priority 2009, dated 2015).

Data set [1] has as its system HT-29 human colon adenocarcinoma cells. Put plainly: Evaluation of antiproliferative effect (MTT assay). Particulars: 72 h, treatment for 3 days, untreated HT-29 cells: 100%, read-out: Decrease of HT-29 colon cancer cell viability (%). The format is cell-based. How it is done:
Cell suspensions (200 μl) containing 10,000 viable cells were plated into each well and incubated over night before exposure with various concentrations of agents. Cells were then incubated with 100 μl of different concentrations of compounds for 3 days at 37° C. with 5% CO2. At the end of the time point (3 days), 10 μl/well of MTT stock solution (5 mg/ml) (Biomol, Germany) were added. […] Each experiment was done in triplicate. […]
The antitumor efficacy of the compounds of the invention was examined against HT-29 human colon adenocarcinoma cells. […] The compound of example 1 of WO 2006/061212 was used as comparative compound.
For orientation: Formazan colour is commonly taken as a measure of viable cells.

Data set [2] has as its system human HT-29 cancer cells. Put plainly: Nicoletti apoptosis assay by cell cycle analysis (sub-G1 fraction). The format is cell-based. The note with it: combination: compound plus Irinotecan 1.18 μM, agent-free control 3.4 ± 0.9%. Here is the method: Cancer cells were transferred to 12-well flat-bottomed plates. Cell suspensions (1 ml) containing 1.5×10^5 viable cells were plated into each well and incubated over night before exposure with various concentrations of agents. Cells were then incubated in 1 ml medium with various concentrations of single applied moguntinones, irinotecan alone, or with the combinations of moguntinones with irinotecan or topotecan at 37° C. with 5% CO2.
After incubation cells were washed with PBS, trypsinizated, palleted and mixed with propidium-iodide-buffer (containing 0.1% sodium citrate, 0.1% triton X-100, […] propidium-iodide) and incubated for 1 hour at 4° C. Cell cycle sub-G1-fraction analysis was performed as described previously^23 using a FACS cytometer (BD FACS Calibur™, BD Biosciences, Heidelberg, Germany). Each experiment was done in triplicate.
All cells were maintained at 37° C. in an incubator under an atmosphere containing 5% CO2. After incubation the cells were washed with PBS, trypsinized, pelleted and mixed with PI buffer (containing 0.1% sodium citrate, 0.1% triton X-100, […] propidium iodide (PI)) and incubated for 1 hour at 4° C. Cell cycle sub-G1 fraction analysis was performed as described previously (Nicoletti, I. et al. (1991) J. Immunol. Methods 139, 271-279) using a flow cytometer (BD FACS Calibur™, BD Biosciences, Heidelberg, Germany). […]

In turn, `COc1cc(C2=C(c3cn(CCN)c4ccccc34)C(=O)NC2=O)cc(OC)c1OC.Cl` [Example 1, 3-(1-[2-Ammonioethyl]-1H-indol-3-yl)-4-(3,4,5-trimethoxyphenyl)-maleinimide-chloride] showed a melting point of 277.1 °C. Besides, in data set [1], the viability at 2.6 µM worked out at 32.3 ± 1.07%, the viability at 7.9 µM came out at 29.3 ± 2.09%, the viability at 26 µM is 12.5 ± 0.39% and the viability at 52 µM was found to be 8.95 ± 0.65%. Moreover, the “Induction of apoptosis, combination compound plus irinotecan” value in data set [2] was found to be 51.00 ± 0.56%.
Molecule `COc1cc(C2=C(c3cn(CCCN)c4ccccc34)C(=O)NC2=O)cc(OC)c1OC.Cl` [Example 2, 3-(1-[3-Ammoniopropyl]-1H-indol-3-yl)-4-(3,4,5-trimethoxyphenyl)-maleinimide-chloride] gave a melting point of 274 to 275 °C. In data set [1], the viability at 2.6 µM came out at 45.8 ± 3.25%, the viability at 7.9 µM stood at 36.4 ± 1.77%, the viability at 26 µM is 17.65 ± 0.13% and the viability at 52 µM stood at 6.68 ± 0.29%.
In the same order, the values of `COc1cc(C2=C(c3cn(CCO)c4ccccc34)C(=O)NC2=O)cc(OC)c1OC` [Example 3, 3-(1-[2-Hydroxyethyl]-1H-indol-3-yl)-4-(3,4,5-trimethoxyphenyl)-maleinimide] are 195 to 196 °C, 68.8 ± 2.48%, 70.2 ± 3.72%, 45.7 ± 2.18% and 28.7 ± 0.55%.
`COc1cc(C2=C(c3cn(CCCO)c4ccccc34)C(=O)NC2=O)cc(OC)c1OC` [Example 4, 3-(1-[3-Hydroxypropyl]-1H-indol-3-yl)-4-(3,4,5-trimethoxyphenyl)-maleinimide] returned a melting point of 160 °C. Also, in data set [1], the viability at 2.6 µM came out at 37.9 ± 1.3%, the viability at 7.9 µM was 34.7 ± 0.78%, the viability at 26 µM was 27.7 ± 1.23% and the viability at 52 µM is 25.4 ± 2.26%.
Taken in the same sequence, the figures for `COc1cc(C2=C(c3cn(CCN(C)C)c4ccccc34)C(=O)NC2=O)cc(OC)c1OC` [Example 5, 3-{1-[2-(Dimethylamino)ethyl]-1H-indol-3-yl}-4-(3,4,5-trimethoxyphenyl)-maleinimide] were 184 to 185 °C, 68.5 ± 8.69%, 52.6 ± 0.53%, 32.2 ± 0.9% and 15 ± 0.9%.
`COc1cc(C2=C(c3cn(CCCN(C)C)c4ccccc34)C(=O)NC2=O)cc(OC)c1OC` [Example 6, 3-{1-[3-(Dimethylamino)propyl]-1H-indol-3-yl}-4-(3,4,5-trimethoxyphenyl)maleinimide] registered a melting point of 187 to 188 °C. In addition, in data set [1], the viability at 2.6 µM amounted to 39.3 ± 2.6%, the viability at 7.9 µM was 38.5 ± 2.43%, the viability at 26 µM was found to be 15.8 ± 1.35% and the viability at 52 µM is 19.4 ± 1.32%.
Taken in the same sequence, the figures for `COc1cc(C2=C(c3cn(CCN4CCCCC4)c4ccccc34)C(=O)NC2=O)cc(OC)c1OC` [Example 7, 3-{1-[2-(Piperidin-1-yl)ethyl]-1H-indol-3-yl}-4-(3,4,5-trimethoxyphenyl)-maleinimide] were 179 to 180 °C, 86.5 ± 2.16%, 56.9 ± 3.02%, 20.1 ± 1.36% and 24.3 ± 0.98%.
Molecule `COc1cc(C2=C(c3cn(CCN4CCOCC4)c4ccccc34)C(=O)NC2=O)cc(OC)c1OC` [Example 8, 3-{1-(2-Morpholinoethyl)-1H-indol-3-yl}-4-(3,4,5-trimethoxyphenyl)-maleinimide] displayed a melting point of 238 to 239 °C. Further, in data set [1], the viability at 2.6 µM was 81.1 ± 2.99%, the viability at 7.9 µM came out at 84.1 ± 2.18%, the viability at 26 µM was 53.39 ± 0.1% and the viability at 52 µM worked out at 39.3 ± 1.31%.
Taken in the same sequence, the figures for `COc1cc(C2=C(c3cn(CCCN4CCN(C)CC4)c4ccccc34)C(=O)NC2=O)cc(OC)c1OC` [Example 9, 3-{1-[3-(4-Methylhexahydro-1-pyrazindiylium)propyl]-1H-indol-3-yl}-4-(3,4,5-trimethoxyphenyl)-maleinimide dichloride] were 225 to 226 °C, 66.5 ± 3.1%, 49.9 ± 1.32%, 22.6 ± 1.16% and 15.3 ± 1.21%.
As for `COc1cc(C2=C(c3c[nH]c4ccc(F)cc34)C(=O)NC2=O)cc(OC)c1OC` [Example 10, 3-(5-Fluoro-1H-indol-3-yl)-4-(3,4,5-trimethoxyphenyl)-maleinimide], the melting point fell in the range of 232 to 233 °C.
The same measure, in the same setting: next, `COc1cc(C2=C(c3c[nH]c4ccc(Br)cc34)C(=O)NC2=O)cc(OC)c1OC` [Example 11, 3-(5-Bromo-1H-indol-3-yl)-4-(3,4,5-trimethoxyphenyl)-maleinimide]: 259 to 262 °C.
Still for that read-out and setting: for `COc1cc(C2=C(c3c[nH]c4cccnc34)C(=O)NC2=O)cc(OC)c1OC` [Example 12, 3-(4-Azaindol-3-yl)-4-(3,4,5-trimethoxyphenyl)-1H-pyrrol-2,5-dione] the value was 274 to 275 °C.

Broadly, the melting point is the temperature, or range, at which the solid turns liquid. As usually defined, the viability is a read-out of living cells in per cent, often relative to untreated cells.
